Reference: the NIST ThermoML archive (doi:10.1021/je900715y)
Numbers after ± are expanded uncertainties.

Assay: xn = mol fraction of the nth substance listed
Conditions: 101.3 kPa, Liquid

CCC(C)O (stereo not given) [butan-2-ol] + CCCCCCC
mass density [kg/m3]
Conditions	288.15 K	293.15 K	298.15 K	303.15 K	308.15 K	313.15 K	318.15 K	323.15 K
x1 = 0.05	691.106 ± 0.63	686.813 ± 0.64	682.487 ± 0.65	678.127 ± 0.65	673.731 ± 0.66	669.301 ± 0.67	664.835 ± 0.67	660.336 ± 0.68
x1 = 0.1	694.641 ± 0.63	690.325 ± 0.64	685.97 ± 0.65	681.576 ± 0.65	677.138 ± 0.66	672.659 ± 0.66	668.131 ± 0.67	663.562 ± 0.68
x1 = 0.15	698.486 ± 0.63	694.158 ± 0.64	689.789 ± 0.64	685.376 ± 0.65	680.913 ± 0.66	676.402 ± 0.66	671.84 ± 0.67	667.23 ± 0.68
x1 = 0.2003	702.573 ± 0.63	698.236 ± 0.63	693.854 ± 0.64	689.427 ± 0.65	684.946 ± 0.65	680.415 ± 0.66	675.83 ± 0.67	671.188 ± 0.67
x1 = 0.3016	711.547 ± 0.62	707.194 ± 0.62	702.791 ± 0.63	698.341 ± 0.64	693.835 ± 0.65	689.275 ± 0.65	684.65 ± 0.66	679.969 ± 0.67
x1 = 0.4004	721.346 ± 0.61	716.97 ± 0.62	712.546 ± 0.62	708.073 ± 0.63	703.542 ± 0.64	698.952 ± 0.64	694.299 ± 0.65	689.584 ± 0.66
x1 = 0.5002	732.429 ± 0.6	728.035 ± 0.61	723.591 ± 0.62	719.095 ± 0.62	714.54 ± 0.63	709.925 ± 0.64	705.243 ± 0.64	700.502 ± 0.65
x1 = 0.5999	744.751 ± 0.59	740.362 ± 0.6	735.917 ± 0.61	731.411 ± 0.61	726.839 ± 0.62	722.202 ± 0.63	717.496 ± 0.63	712.72 ± 0.64
x1 = 0.65	751.547 ± 0.59	747.174 ± 0.6	742.739 ± 0.6	738.239 ± 0.61	733.67 ± 0.61	729.03 ± 0.62	724.317 ± 0.63	719.533 ± 0.63
x1 = 0.72	761.59 ± 0.58	757.255 ± 0.59	752.851 ± 0.59	748.373 ± 0.6	743.821 ± 0.61	739.19 ± 0.61	734.479 ± 0.62	729.69 ± 0.63
x1 = 0.8	774.103 ± 0.57	769.827 ± 0.58	765.479 ± 0.59	761.053 ± 0.59	756.541 ± 0.6	751.943 ± 0.6	747.257 ± 0.61	742.488 ± 0.62
x1 = 0.8499	782.463 ± 0.57	778.238 ± 0.57	773.935 ± 0.58	769.552 ± 0.59	765.08 ± 0.59	760.519 ± 0.6	755.863 ± 0.6	751.116 ± 0.61
x1 = 0.8995	791.187 ± 0.56	787.015 ± 0.57	782.767 ± 0.57	778.434 ± 0.58	774.01 ± 0.59	769.495 ± 0.59	764.879 ± 0.6	760.166 ± 0.6
x1 = 0.9501	800.691 ± 0.56	796.583 ± 0.56	792.396 ± 0.57	788.125 ± 0.57	783.761 ± 0.58	779.299 ± 0.59	774.738 ± 0.59	770.073 ± 0.6
x1 = 1	810.689 ± 0.55	806.646 ± 0.56	802.528 ± 0.56	798.326 ± 0.57	794.03 ± 0.57	789.632 ± 0.58	785.117 ± 0.58	780.515 ± 0.59
